The target of one assay is T1, PI3Kα (Homo sapiens, UniProt P42336).
T1 construct: His
The assay is described as follows: PI3K Alpha Leadseeker SPA Assay. The format is biochemical. The conditions noted are these: His-p110/p85 PI3K alpha, SPA imaging beads, P33-ATP; read-out: IC50 against PI3Kα. The procedure:
PI3K Alpha Leadseeker SPA Assay
Compounds of the present invention were tested according to the following assays and found as inhibitors of PI3 kinases, particularly PI3Kα. The activities (IC50) range from 1 to 500 μM against PI3Kα.
SPA imaging beads are microspheres containing scintillant which emit light in the red region of the visible spectrum. As a result, these beads are ideally suited to use with a CCD imager such as the Viewlux. The Leadseeker beads used in this system are polystyrene beads that have been coupled with polyethyleneimine. When added to the assay mixture, the beads absorb both the substrate (PIP2) and product (PIP3). Adsorbed P^33-PIP3 will cause an increase in signal, measured as ADUs (analog to digital units). This protocol details the use of the PEI-PS Leadseeker beads for assays using His-p110/p85 PI3K alpha.
Solid compounds are typically plated with 0.1 μl of 100% DMSO in all wells (except column 6 and 18) of a 384-well, flat bottom, low volume plate (Greiner 784075). […]
The assay buffer contains MOPS (pH 6.5), CHAPS, and DTT. […] The signal is determined using a Viewlux detector and is then imported into curve fitting software (Activity Base) for construction of concentration response curves. […]

In a further assay the test system is Class I PI3-kinases. The conditions noted are these: wortmannin, background section; read-out: IC50 against each of the various Class I PI3-kinases; cited from earlier work.

Molecules are shown by their SMILES. pIC50: −log10 of the molar value.

T1 sequence (P42336 whole entry): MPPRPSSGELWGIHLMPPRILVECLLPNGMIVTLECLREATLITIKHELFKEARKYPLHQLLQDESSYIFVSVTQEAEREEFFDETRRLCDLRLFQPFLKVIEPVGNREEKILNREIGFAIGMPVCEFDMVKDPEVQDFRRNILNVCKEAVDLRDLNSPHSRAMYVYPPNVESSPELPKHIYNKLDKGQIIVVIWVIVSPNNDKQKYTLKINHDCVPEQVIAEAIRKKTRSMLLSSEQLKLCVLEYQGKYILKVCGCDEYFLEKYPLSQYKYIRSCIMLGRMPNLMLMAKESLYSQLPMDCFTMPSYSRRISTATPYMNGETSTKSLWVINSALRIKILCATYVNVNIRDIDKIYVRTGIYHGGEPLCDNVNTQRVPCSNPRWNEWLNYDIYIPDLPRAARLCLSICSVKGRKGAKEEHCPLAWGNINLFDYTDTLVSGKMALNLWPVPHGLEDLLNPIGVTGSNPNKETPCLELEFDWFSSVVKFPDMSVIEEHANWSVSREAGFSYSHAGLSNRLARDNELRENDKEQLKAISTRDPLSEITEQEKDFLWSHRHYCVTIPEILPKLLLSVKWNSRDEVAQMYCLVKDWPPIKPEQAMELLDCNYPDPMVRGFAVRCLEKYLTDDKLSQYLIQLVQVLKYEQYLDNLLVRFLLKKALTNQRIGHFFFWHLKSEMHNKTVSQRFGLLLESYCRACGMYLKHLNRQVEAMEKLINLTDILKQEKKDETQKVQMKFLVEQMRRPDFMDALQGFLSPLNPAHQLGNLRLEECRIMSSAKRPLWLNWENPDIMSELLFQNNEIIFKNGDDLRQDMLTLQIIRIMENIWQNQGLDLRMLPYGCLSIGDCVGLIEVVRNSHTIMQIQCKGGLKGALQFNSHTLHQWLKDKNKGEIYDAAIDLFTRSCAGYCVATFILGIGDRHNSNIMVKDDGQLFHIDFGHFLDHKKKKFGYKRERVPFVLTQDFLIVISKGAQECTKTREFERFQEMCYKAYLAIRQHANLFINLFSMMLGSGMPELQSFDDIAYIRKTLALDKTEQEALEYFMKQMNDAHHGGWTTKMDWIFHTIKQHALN
T1 sequence (P27986 whole entry partner): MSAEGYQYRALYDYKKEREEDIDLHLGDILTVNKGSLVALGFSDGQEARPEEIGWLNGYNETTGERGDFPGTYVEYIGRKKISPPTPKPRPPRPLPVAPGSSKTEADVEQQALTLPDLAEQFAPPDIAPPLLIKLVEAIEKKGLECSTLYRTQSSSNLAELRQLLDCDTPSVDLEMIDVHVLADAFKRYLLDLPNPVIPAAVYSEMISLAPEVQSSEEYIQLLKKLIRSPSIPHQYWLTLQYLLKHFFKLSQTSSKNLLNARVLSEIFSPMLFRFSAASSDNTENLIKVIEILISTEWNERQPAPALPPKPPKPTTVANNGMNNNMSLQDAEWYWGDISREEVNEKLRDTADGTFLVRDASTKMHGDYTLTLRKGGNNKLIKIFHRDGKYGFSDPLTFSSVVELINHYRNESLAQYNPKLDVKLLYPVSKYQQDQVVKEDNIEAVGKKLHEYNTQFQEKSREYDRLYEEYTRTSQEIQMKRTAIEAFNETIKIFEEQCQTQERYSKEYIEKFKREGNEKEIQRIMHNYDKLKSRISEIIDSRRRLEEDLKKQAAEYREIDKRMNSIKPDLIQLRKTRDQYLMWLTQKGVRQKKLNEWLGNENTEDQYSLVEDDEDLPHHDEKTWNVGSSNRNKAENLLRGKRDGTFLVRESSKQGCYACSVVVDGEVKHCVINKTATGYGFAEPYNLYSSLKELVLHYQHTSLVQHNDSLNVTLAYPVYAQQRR

Turning to `O=C1NC(=O)/C(=C/c2ccc3nccc(-c4ccncc4)c3c2)S1` [Example 1, (5Z)-5-{[4-(4-pyridinyl)-6-quinolinyl]methylidene}-1,3-thiazolidine-2,4-dione], the negative-log IC50 (pIC50) (as a rule, the negative decadic logarithm of the IC50, by convention in mol/L) on PI3Kα was 6.00. Consider `COC[C@H]1OC(=O)c2coc3c2[C@@]1(C)C1=C(C3=O)[C@@H]2CCC(=O)[C@@]2(C)C[C@H]1OC(C)=O` [wortmannin], for which the pIC50 in the assay on Class I PI3-kinases was 8.00 to 9.00.
